Consider 74 compounds from patent publication US9802899B2, “Heterocyclic compounds as pesticides” (BAYER CROPSCIENCE AG, priority 2012, dated 2017).

The nature of the data set: Determination of the log P values by HPLC (formic acid method). It is filed as physicochemical. The conditions noted are these: reversed-phase column (C 18), acidic range (pH 3.4), 55° C. The procedure:
1) Description of Method for Determination of the Log P Values (Formic Acid Method)
Eluents for determination in the acidic range (pH 3.4):
Eluent A: acetonitrile+1 ml of formic acid/liter. Eluent B: water+0.9 ml of formic acid/liter.
The lambda max values were determined in the maxima of the chromatographic signals using the UV spectra from 200 nm to 400 nm.

In the case of `O=C(Nc1ccn(-c2ccccc2Br)n1)c1cccnc1Cl` [Compound I-1-57], the “log P” value was determined as 2.37.

As for `Cn1nc(C(F)F)c(C(=O)Nc2ccn(-c3ccccc3Br)n2)c1F` [Compound I-1-58], the “log P” value was 2.63.

In the case of `Cn1nc(C(F)(F)F)c(C(=O)Nc2ccn(-c3ccccc3Br)n2)c1F` [Compound I-1-59], the “log P” value came to 3.00.

As to `Cc1ccsc1C(=O)Nc1ccn(-c2ccccc2Br)n1` [Compound I-1-60], the “log P” value is 3.16.

For the compound `O=C(Nc1ccn(-c2cccc(F)c2F)n1)c1ccccc1C(F)(F)F` [Compound I-1-62], the log partition coefficient (log P) amounted to 3.07.

With `O=C(Nc1ccn(-c2cccc(F)c2F)n1)c1ccccc1C(F)(F)F` [Compound I-1-64], the “log P” value is reported as 3.02.

`O=C(Nc1ccn(-c2cccc(F)c2F)n1)c1ccccc1C(F)(F)F` [Compound I-1-65]: the “log P” value was 3.13.

For `O=C(Nc1ccn(-c2cccc(F)c2F)n1)c1ccccc1Cl` [Compound I-1-66], the “log P” value is 3.02.

As for `O=C(Nc1ccn(-c2cccc(F)c2F)n1)c1ccccc1I` [Compound I-1-67], the “log P” value amounted to 3.10.

Consider `O=C(Nc1ccn(-c2cccc(F)c2F)n1)c1ncccc1C(F)(F)F` [Compound I-1-68], for which the “log P” value is recorded as 3.29.

On to `O=C(Nc1ccn(-c2cc(F)ccc2F)n1)c1cccnc1C(F)(F)F` [Compound I-1-70], for which the “log P” value is 2.60.

Take `Cc1ccsc1C(=O)Nc1ccn(-c2cc(F)ccc2F)n1` [Compound I-1-71]: the “log P” value was 3.24.

Regarding `Cc1ccccc1C(=O)Nc1ccn(-c2c(F)cccc2F)n1` [Compound I-1-73], the “log P” value was found to be 2.60.

For the compound `O=C(Nc1ccn(-c2c(F)cccc2F)n1)c1ccccc1C(F)F` [Compound I-1-74], the “log P” value turned out to be 2.73.

In the case of `CCc1ccccc1C(=O)Nc1ccn(-c2c(F)cccc2F)n1` [Compound I-1-78], the “log P” value came out at 2.92.

`O=C(Nc1ccn(-c2c(F)cccc2F)n1)c1ccccc1OC(F)(F)F` [Compound I-1-79]: the “log P” value is 2.96.

Take `O=C(Nc1ccn(-c2c(F)cccc2F)n1)c1ccccc1Cl` [Compound I-1-81]: the “log P” value was determined as 2.55.

In the case of `O=C(Nc1ccn(-c2c(F)cccc2F)n1)c1c(F)cccc1F` [Compound I-1-84], the “log P” value came out at 2.42.

Consider `O=C(Nc1ccn(-c2c(F)cccc2F)n1)c1c(F)cccc1Cl` [Compound I-1-85], for which the “log P” value was 2.60.

Take `O=C(Nc1ccn(-c2c(F)cccc2F)n1)c1ccccc1O` [Compound I-1-87]: the “log P” value stood at 2.66.

As to `O=C(Nc1ccn(-c2c(F)cccc2F)n1)c1ccccc1SC(F)(F)F` [Compound I-1-88], the “log P” value was determined as 3.15.

As for `O=C(Nc1ccn(-c2c(F)cccc2F)n1)c1ccccc1-n1cncn1` [Compound I-1-89], the “log P” value stood at 1.66.

With `Cc1cccnc1C(=O)Nc1ccn(-c2c(F)cccc2F)n1` [Compound I-1-90], the “log P” value was found to be 2.86.

Turning to `O=C(Nc1ccn(-c2c(F)cccc2F)n1)c1ncccc1Cl` [Compound I-1-92], the “log P” value is 2.40.

In the case of `O=C(Nc1ccn(-c2c(F)cccc2F)n1)c1cccnc1C(F)(F)F` [Compound I-1-93], the “log P” value is 2.68.

Turning to `O=C(Nc1ccn(-c2c(F)cccc2F)n1)c1cnccc1C(F)(F)F` [Compound I-1-94], the “log P” value is reported as 2.16.

For the compound `O=C(Nc1ccn(-c2c(F)cccc2F)n1)c1cccnc1Cl` [Compound I-1-95], the “log P” value is on record as 1.96.

On to `O=C(Nc1ccn(-c2c(F)cccc2F)n1)c1ccncc1C(F)(F)F` [Compound I-1-97], for which the “log P” value is given as 2.16.

In the case of `CCc1nnccc1C(=O)Nc1ccn(-c2c(F)cccc2F)n1` [Compound I-1-98], the “log P” value came out at 1.73.

`O=C(Nc1ccn(-c2c(F)cccc2F)n1)c1nccnc1Cl` [Compound I-1-100]: the “log P” value came out at 2.15.

Turning to `CC1=C(C(=O)Nc2ccn(-c3c(F)cccc3F)n2)SCCO1` [Compound I-1-101], the “log P” value was determined as 2.41.

Turning to `O=C(Nc1ccn(-c2c(F)cccc2F)n1)C1=C(C(F)(F)F)OCCS1` [Compound I-1-102], the “log P” value amounted to 2.56.

For `Cc1ccsc1C(=O)Nc1ccn(-c2c(F)cccc2F)n1` [Compound I-1-103], the “log P” value is 2.64.

On to `O=C(Nc1ccn(-c2c(F)cccc2F)n1)c1sccc1I` [Compound I-1-104], for which the “log P” value is reported as 2.96.

For the compound `O=C(Nc1ccn(-c2c(F)cccc2F)n1)c1ccsc1I` [Compound I-1-105], the “log P” value worked out at 2.76.

In the case of `Cc1noc(C(F)F)c1C(=O)Nc1ccn(-c2c(F)cccc2F)n1` [Compound I-1-106], the “log P” value is reported as 2.53.

For the compound `Cc1nn(C)cc1C(=O)Nc1ccn(-c2c(F)cccc2F)n1` [Compound I-1-107], the lipophilicity (log P) is recorded as 1.71.

For the compound `Cn1cc(C(=O)Nc2ccn(-c3c(F)cccc3F)n2)c(I)n1` [Compound I-1-108], the “log P” value came to 2.03.

Consider `Cc1nn(C)c(C)c1C(=O)Nc1ccn(-c2c(F)cccc2F)n1` [Compound I-1-109], for which the “log P” value worked out at 1.77.

With `Cc1nn(C)c(F)c1C(=O)Nc1ccn(-c2c(F)cccc2F)n1` [Compound I-1-110], the “log P” value was found to be 1.98.

In the case of `O=C(Nc1ccn(-c2c(F)cccc2F)n1)c1ccnn1C(F)F` [Compound I-1-111], the “log P” value is 2.40.

For the compound `Cn1nc(C(F)(F)F)c(C(=O)Nc2ccn(-c3c(F)cccc3F)n2)c1F` [Compound I-1-112], the “log P” value was 2.53.

On to `Cc1nc(C)c(C(=O)Nc2ccn(-c3c(F)cccc3F)n2)s1` [Compound I-1-113], for which the “log P” value turned out to be 2.09.

Take `Cc1nc(C(F)(F)F)c(C(=O)Nc2ccn(-c3c(F)cccc3F)n2)s1` [Compound I-1-114]: the “log P” value worked out at 2.58.

`O=C(Nc1ccn(-c2c(F)cccc2F)n1)c1snc(Cl)c1Cl` [Compound I-1-115]: the “log P” value stood at 3.33.

In the case of `Cc1nonc1C(=O)Nc1ccn(-c2c(F)cccc2F)n1` [Compound I-1-116], the “log P” value came out at 2.53.

In the case of `O=C(Nc1ccn(-c2cc(Cl)ccc2Cl)n1)c1ccccc1Br` [Compound I-1-119], the “log P” value is recorded as 3.40.

With `O=C(Nc1ccn(-c2c(Cl)cccc2Cl)n1)c1ccccc1C(F)(F)F` [Compound I-1-120], the “log P” value worked out at 3.05.

On to `O=C(Nc1ccn(-c2c(Cl)cccc2Cl)n1)c1ccccc1Br` [Compound I-1-122], for which the “log P” value was 2.88. This log P and that of the compound before are within 0.2 log units of each other.

Regarding `O=C(Nc1ccn(-c2c(Cl)cccc2Cl)n1)c1cccnc1C(F)(F)F` [Compound I-1-124], the “log P” value is recorded as 2.57.

For the compound `O=C(Nc1ccn(-c2ccccc2[N+](=O)[O-])n1)c1ccccc1Cl` [Compound I-1-125], the “log P” value was 2.46.

Turning to `CS(=O)(=O)c1ccccc1-n1ccc(NC(=O)c2ccccc2Cl)n1` [Compound I-1-126], the “log P” value was found to be 1.96.

As for `O=C(Nc1ccn(-c2ccccn2)n1)c1ccccc1Br` [Compound I-1-127], the “log P” value is 2.36.

For the compound `O=C(Nc1ccn(-c2ncccc2F)n1)c1ccccc1Cl` [Compound I-1-129], the “log P” value was found to be 2.05.

With `O=C(Nc1ccn(-c2ncccc2F)n1)c1ccccc1Br` [Compound I-1-130], the “log P” value came out at 2.12. The log P values of the last two compounds are within 0.2 log units of each other.

Take `O=C(Nc1ccn(-c2ncccc2F)n1)c1c(F)cccc1F` [Compound I-1-132]: the “log P” value was determined as 1.99.

With `O=C(c1cccnc1C(F)(F)F)N(C(=O)c1cccnc1C(F)(F)F)c1ccn(-c2ncccc2F)n1` [Compound I-1-134], the “log P” value came to 2.93.

Turning to `O=C(Nc1ccn(-c2ncccc2Cl)n1)c1ccccc1C(F)(F)F` [Compound I-1-135], the “log P” value is 2.41.

Turning to `O=C(Nc1ccn(-c2ncccc2Cl)n1)c1ccccc1I` [Compound I-1-138], the “log P” value is reported as 2.36. The log P values of the last two compounds are within 0.2 log units of each other.

`O=C(Nc1ccn(-c2cccnc2Cl)n1)c1ccccc1I` [Compound I-1-139, N-[1-(2-Chloropyridin-3-yl)-1H-pyrazol-3-yl]-2-iodobenzamide] displayed a chromatographic logP (reversed-phase HPLC column (C 18)) of 2.27.

For `CC(=O)N(C(=O)c1ccccc1C(F)(F)F)c1ccn(-c2ncc(F)cc2F)n1` [Compound I-1-142], the “log P” value was determined as 2.97.

For `O=C(Nc1ccn(-c2ncc(F)cc2F)n1)c1ccccc1Cl` [Compound I-1-143], the “log P” value is listed as 2.32.

For the compound `O=C(Nc1ccn(-c2ncc(F)cc2F)n1)c1ccccc1Br` [Compound I-1-144], the “log P” value is listed as 2.36.

As to `O=C(Nc1ccn(-c2ncc(F)cc2F)n1)c1ccccc1[N+](=O)[O-]` [Compound I-1-147], the “log P” value was determined as 2.00.

As to `O=C(Nc1ccn(-c2ncc(F)cc2F)n1)c1ccccc1O` [Compound I-1-148], the “log P” value was 2.48.

Take `O=C(Nc1ccn(-c2ncc(F)cc2F)n1)c1ccccc1SC(F)(F)F` [Compound I-1-149]: the lipophilicity (log P) came to 2.98.

Consider `O=C(Nc1ccn(-c2ncc(F)cc2F)n1)c1ccccc1-n1cncn1` [Compound I-1-150], for which the “log P” value stood at 1.47.

With `O=C(Nc1ccn(-c2ncc(F)cc2F)n1)c1cccnc1C(F)(F)F` [Compound I-1-151], the “log P” value is 2.02.

As for `O=C(Nc1ccn(-c2ncc(F)cc2F)n1)c1cccnc1Cl` [Compound I-1-152], the “log P” value turned out to be 1.72.

As to `O=C(Nc1ccn(-c2ncc(F)cc2F)n1)c1ccncc1C(F)(F)F` [Compound I-1-153], the “log P” value is reported as 1.96.

Turning to `O=C(Nc1ccn(-c2ncc(F)cc2F)n1)c1cncnc1C(F)(F)F` [Compound I-1-154], the “log P” value is 2.00.

`O=C(Nc1ccn(-c2ncc(F)cc2F)n1)C1=C(C(F)(F)F)OCCS1` [Compound I-1-155]: the “log P” value is listed as 2.35.

`Cn1cc(C(=O)Nc2ccn(-c3ncc(F)cc3F)n2)c(C(F)(F)F)c1` [Compound I-1-156]: the “log P” value was 2.31. This log P and that of the compound before are within 0.2 log units of each other.

For the compound `Cc1noc(C(F)F)c1C(=O)Nc1ccn(-c2ncc(F)cc2F)n1` [Compound I-1-157], the “log P” value is recorded as 2.33.
